Test results reported in ChEMBL document CHEMBL2331138, “Isolation and structures of axistatins 1-3 from the Republic of Palau marine sponge Agelas axifera Hentschel ” (2013).
Converted amounts (≈) assume the structure as drawn. The source made the active and inactive calls. The calls are words filed in the database; no cut-off is given here.

Legend:
[1] = test system: Neisseria gonorrhoeae; assay: Antimicrobial activity against Neisseria gonorrhoeae ATCC 49226 by NCCLS broth microdilution assay; format: functional
[2] = test system: Enterobacter cloacae; assay: Antimicrobial activity against Enterobacter cloacae ATCC 13047 by NCCLS broth microdilution assay; format: functional
[3] = test system: Streptococcus pneumoniae; assay: Antimicrobial activity against Streptococcus pneumoniae ATCC 6303 by NCCLS broth microdilution assay; format: functional
[4] = test system: KM-20L2; assay: Growth inhibition of human KM20L2 cells after 48 hrs by SRB assay; format: functional; details: KM-20L2, 48 h
[5] = test system: Micrococcus luteus; assay: Antimicrobial activity against Micrococcus luteus Presque Isle 456 by NCCLS broth microdilution assay; format: functional
[6] = test system: Enterococcus faecalis; assay: Antimicrobial activity against Enterococcus faecalis ATCC 29212 by NCCLS broth microdilution assay; format: functional
[7] = test system: Cryptococcus neoformans; assay: Antimicrobial activity against Cryptococcus neoformans ATCC 90112 by NCCLS broth microdilution assay; format: functional
[8] = test system: Candida albicans; assay: Antimicrobial activity against Candida albicans ATCC 90028 by NCCLS broth microdilution assay; format: functional
[9] = test system: Staphylococcus aureus; assay: Antimicrobial activity against Staphylococcus aureus ATCC 29213 by NCCLS broth microdilution assay; format: functional
[10] = test system: P388; assay: Growth inhibition of mouse P388 cells after 48 hrs by Z1 Coulter particle counting; format: functional; details: P388, 48 h, read-out: ED50 (the source's name)
[11] = test system: MCF7; assay: Growth inhibition of human MCF7 cells after 48 hrs by SRB assay; format: functional; details: MCF7, 48 h
[12] = test system: NCI-H460; assay: Growth inhibition of human NCI-H460 cells after 48 hrs by SRB assay; format: functional; details: NCI-H460, 48 h
[13] = test system: BXPC-3; assay: Growth inhibition of human BxPC3 cells after 48 hrs by SRB assay; format: functional; details: BXPC-3, 48 h
[14] = test system: Stenotrophomonas maltophilia; assay: Antimicrobial activity against Stenotrophomonas maltophilia ATCC 13637 by NCCLS broth microdilution assay; format: functional
[15] = test system: SF-268; assay: Growth inhibition of human SF268 cells after 48 hrs by SRB assay; format: functional; details: SF-268, 48 h
[16] = test system: Escherichia coli; assay: Antimicrobial activity against Escherichia coli ATCC 25922 by NCCLS broth microdilution assay; format: functional
[17] = test system: DU-145; assay: Growth inhibition of human DU145 cells after 48 hrs by SRB assay; format: functional; details: DU-145, 48 h
[18] = test system: Candida albicans; assay: Antimicrobial activity against Candida albicans ATCC 90028 assessed as growth inhibition at 64 ug/mL by NCCLS broth microdilution assay; format: functional, organism-based
[19] = test system: Enterobacter cloacae; assay: Antimicrobial activity against Enterobacter cloacae ATCC 13047 assessed as growth inhibition at 64 ug/mL by NCCLS broth microdilution assay; format: functional, organism-based
[20] = test system: Cryptococcus neoformans; assay: Antimicrobial activity against Cryptococcus neoformans ATCC 90112 assessed as growth inhibition at 64 ug/mL by NCCLS broth microdilution assay; format: functional, organism-based
[21] = test system: Stenotrophomonas maltophilia; assay: Antimicrobial activity against Stenotrophomonas maltophilia ATCC 13637 assessed as growth inhibition at 64 ug/mL by NCCLS broth microdilution assay; format: functional, organism-based
[22] = test system: Escherichia coli; assay: Antimicrobial activity against Escherichia coli ATCC 25922 assessed as growth inhibition at 64 ug/mL by NCCLS broth microdilution assay; format: functional, organism-based
[23] = test system: Neisseria gonorrhoeae; assay: Antimicrobial activity against Neisseria gonorrhoeae ATCC 49226 assessed as growth inhibition at 64 ug/mL by NCCLS broth microdilution assay; format: functional, organism-based
[24] = test system: Micrococcus luteus; assay: Antimicrobial activity against Micrococcus luteus Presque Isle 456 assessed as growth inhibition at 64 ug/mL by NCCLS broth microdilution assay; format: functional, organism-based
[25] = test system: Enterococcus faecalis; assay: Antimicrobial activity against Enterococcus faecalis ATCC 29212 assessed as growth inhibition at 64 ug/mL by NCCLS broth microdilution assay; format: functional, organism-based
[26] = test system: Streptococcus pneumoniae; assay: Antimicrobial activity against Streptococcus pneumoniae ATCC 6303 assessed as growth inhibition at 64 ug/mL by NCCLS broth microdilution assay; format: functional, organism-based
[27] = test system: Staphylococcus aureus; assay: Antimicrobial activity against Staphylococcus aureus ATCC 29213 assessed as growth inhibition at 64 ug/mL by NCCLS broth microdilution assay; format: functional, organism-based

MIC [1] [mg/L] | MIC [3] [mg/L] | MIC [5] [mg/L] | MIC [6] [mg/L] | MIC [7] [mg/L] | MIC [9] [mg/L] | EC50 [10] [µM] | GI50 [11] [µM] | GI50 [12] [µM] | GI50 [13] [µM] | GI50 [17] [µM] | Compound | GI50 [4] [µM] | GI50 [15] [µM] | growth inhibition (GI) [18] | growth inhibition (GI) [19] | growth inhibition (GI) [20] | growth inhibition (GI) [21] | growth inhibition (GI) [22] | also measured
 |  |  |  |  |  | > 18.2 | 3.1 | 3.6 | 4 | 4.6 | CNc1ncnc(N)c1N(C=O)C/C=C(\C)CC[C@]1(C)[C@@H](C)CC[C@@]2(C)C(COC(=O)c3ccc[nH]3)=CCC[C@@H]12 | 2.9 | 3.1 | inactive | inactive | inactive | inactive | inactive | growth inhibition (GI) [23]: inactive; growth inhibition (GI) [24]: inactive; growth inhibition (GI) [25]: inactive; growth inhibition (GI) [26]: inactive; growth inhibition (GI) [27]: inactive
1 (≈ 2.27 µM) | 8 (≈ 18.2 µM) | 1 (≈ 2.27 µM) | 1 (≈ 2.27 µM) | 1 (≈ 2.27 µM) | 1 (≈ 2.27 µM) | 19.8 | 5.7 | 4.6 | 4.8 | 4.8 | CNc1ncnc(N)c1N(C=O)C/C=C(\C)CC[C@]1(C)[C@@H](C)CC[C@@]2(C)C(C)=CCC[C@@H]12 [AXISTATIN 1] | 4.1 | 3.6 | inactive | inactive |  | inactive | inactive | 
2 (≈ 4.55 µM) | 8 (≈ 18.2 µM) | 1 (≈ 2.27 µM) | 1 (≈ 2.27 µM) | 2 (≈ 4.55 µM) | 1 (≈ 2.27 µM) | > 22.8 | 6.8 | 4.3 | 5.5 | 5 | CNc1ncnc(N)c1N(C=O)C/C=C(\C)CC[C@@]1(C)[C@H](C)CC[C@@]2(C)C(C)=CCC[C@H]12 [AXISTATIN 2] | 4.1 | 3.9 | inactive | inactive |  | inactive | inactive | 

The remaining lines, values behind:

Compound | MIC [1] [mg/L] | MIC [3] [mg/L] | MIC [5] [mg/L] | MIC [6] [mg/L] | MIC [7] [mg/L] | MIC [9] [mg/L] | EC50 [10] [µM] | GI50 [11] [µM] | GI50 [12] [µM] | GI50 [13] [µM] | GI50 [17] [µM] | GI50 [4] [µM] | GI50 [15] [µM] | growth inhibition (GI) [18] | growth inhibition (GI) [19] | growth inhibition (GI) [20] | growth inhibition (GI) [21] | growth inhibition (GI) [22] | also measured
CC1=CCC[C@H](C)[C@@]1(C)CC/C(C)=C/CC/C(C)=C/Cn1c[n+](C)c2ncnc(N)c21.[Cl-] [AGELINE A] | 2 | 16 | < 0.5 | 2 | 2 | 2 | > 21.8 | 3.9 | 3.7 | 3.5 | 4.2 | 3.5 | 3.5 |  |  |  |  |  | MIC [2]: 32 mg/L; MIC [8]: 4 mg/L; MIC [14]: 16 mg/L; MIC [16]: 32 mg/L
CNc1ncnc(N)c1N(C=O)C/C=C(\C)CC/C=C(\C)CC[C@@]1(C)C(C)=CCC[C@@H]1C | 16 (≈ 36.4 µM) | 32 (≈ 72.8 µM) | 4 (≈ 9.1 µM) | 8 (≈ 18.2 µM) |  | 8 (≈ 18.2 µM) | 15.7 | 5.9 | 6.8 | 5.9 | 6.8 | 7.1 | 3.9 | inactive | inactive | inactive | inactive | inactive | 
CNc1ncnc(NC(C)C)c1N(C=O)C/C=C(\C)CC/C=C(\C)CC[C@@]1(C)C(C)=CCC[C@@H]1C [AXISTATIN 3] | 8 (≈ 16.6 µM) | 32 (≈ 66.4 µM) | 8 (≈ 16.6 µM) | 8 (≈ 16.6 µM) | 8 (≈ 16.6 µM) | 4 (≈ 8.3 µM) | 8.9 | 5.8 | 5.4 | 6 | 7.5 | 6.9 | 3.5 | inactive | inactive |  | inactive | inactive | 
